Patent US4362743A, “Antibacterial monic acid esters” (Beecham Group Limited, priority 1980, dated 1982)
Converted amounts (≈) assume the structure as drawn.

Assays:
Type in all cases: cell-based
M. suipneumoniae NB12 = experiment: Anti-mycoplasmal activity in vitro MIC; conditions: Mesomycoplasma hyopneumoniae, NB12, 144 h
M. suipneumoniae JF 435 = experiment: Anti-mycoplasmal activity in vitro MIC; conditions: Mesomycoplasma hyopneumoniae, JF435, 144 h; M. suipneumoniae JF 435; Friis broth, 0.9% agarose, 6 days 37° C.; read-out: M.I.C.
M. suipneumoniae HK (2) = experiment: Anti-mycoplasmal activity in vitro MIC; conditions: Mesomycoplasma hyopneumoniae, 144 h; M. suipneumoniae HK (2); Friis broth, 0.9% agarose, 6 days 37° C.; read-out: M.I.C.
M. suipneumoniae Str. 11 = experiment: Anti-mycoplasmal activity in vitro MIC; conditions: Mesomycoplasma hyopneumoniae, STR.11, 144 h
[1] = test system: M. suipneumoniae J2206/183b; experiment: Anti-mycoplasmal activity in vitro MIC; conditions: Mesomycoplasma hyopneumoniae, 144 h; M. suipneumoniae J2206/183b; Friis broth, 0.9% agarose, 6 days 37° C.; read-out: M.I.C.
M. suipneumoniae MS16 = experiment: Anti-mycoplasmal activity in vitro MIC; conditions: Mesomycoplasma hyopneumoniae, MS16, 144 h
[2] = test system: M. suipneumoniae PW/C/210; experiment: Anti-mycoplasmal activity in vitro MIC; conditions: Mesomycoplasma hyopneumoniae, 144 h
M. suipneumoniae LABER = experiment: Anti-mycoplasmal activity in vitro MIC; conditions: Mesomycoplasma hyopneumoniae, 144 h
M. suipneumoniae UCD 1 = experiment: Anti-mycoplasmal activity in vitro MIC; conditions: Mesomycoplasma hyopneumoniae, UCD1, 144 h; M. suipneumoniae UCD 1; Friis broth, 0.9% agarose, 6 days 37° C.; read-out: M.I.C.
M. suipneumoniae TAM 6N = experiment: Anti-mycoplasmal activity in vitro MIC; conditions: Mesomycoplasma hyopneumoniae, TAM6N, 144 h; M. suipneumoniae TAM 6N; Friis broth, 0.9% agarose, 6 days 37° C.; read-out: M.I.C.
[3] = test system: M. suipneumoniae ATCC 25095; experiment: Anti-mycoplasmal activity in vitro MIC; conditions: Mesomycoplasma hyopneumoniae, ATCC25095, 144 h
[4] = test system: M. suipneumoniae NCTC 10110; experiment: Anti-mycoplasmal activity in vitro MIC; conditions: Mesomycoplasma hyopneumoniae, NCTC10110, 144 h; M. suipneumoniae NCTC 10110; Friis broth, 0.9% agarose, 6 days 37° C.; read-out: M.I.C.
M. hyorhinis ATCC 23234 = experiment: Anti-mycoplasmal activity in vitro MIC; conditions: Mesomycoplasma hyorhinis, ATCC23234, 144 h
M. hyorhinis ATCC 25021 = experiment: Anti-mycoplasmal activity in vitro MIC; conditions: Mesomycoplasma hyorhinis, ATCC25021, 144 h
[5] = test system: M. hyosynoviae ATCC 25591; experiment: Anti-mycoplasmal activity in vitro MIC; conditions: 144 h
M. bovis NCTC 10131 = experiment: microbe, parasite or virus in culture; conditions: NCTC10131, 144 h
[6] = test system: M. bovigenitalium ATCC 14173; experiment: Anti-mycoplasmal activity in vitro MIC; conditions: 144 h; M. bovigenitalium ATCC 14173; Friis broth, 0.9% agarose, 6 days 37° C.; read-out: M.I.C.
M. dispar NCTC 10125 = experiment: Anti-mycoplasmal activity in vitro MIC; conditions: 144 h
M. gallisepticum S6 = experiment: Anti-mycoplasmal activity in vitro MIC; conditions: Mycoplasmoides gallisepticum, 144 h; M. gallisepticum S6; Friis broth, 0.9% agarose, 6 days 37° C.; read-out: M.I.C.
M. pneumoniae ATCC 15492 = experiment: Anti-mycoplasmal activity in vitro MIC; conditions: Mycoplasmoides pneumoniae, ATCC15492, 144 h

C/C(=C\C(=O)OCc1cccc(C=NO)c1)C[C@@H]1OC[C@H](C[C@@H]2O[C@H]2[C@@H](C)[C@H](C)O)[C@@H](O)[C@H]1O [Example 8, m-Hydroxyiminomethylbenzyl monate A]
MIC (M. suipneumoniae NB12): 0.25 µg/mL (≈ 0.524 µM)
MIC (M. suipneumoniae JF 435): 0.5 µg/mL (≈ 1.05 µM)
MIC (M. suipneumoniae HK (2)): 0.5 µg/mL (≈ 1.05 µM)
MIC (M. suipneumoniae Str. 11): 0.25 µg/mL (≈ 0.524 µM)
MIC [1]: 0.5 µg/mL (≈ 1.05 µM)
MIC (M. suipneumoniae MS16): 0.25 µg/mL (≈ 0.524 µM)
MIC [2]: 0.25 µg/mL (≈ 0.524 µM)
MIC (M. suipneumoniae LABER): 0.25 µg/mL (≈ 0.524 µM)
MIC (M. suipneumoniae UCD 1): 0.5 µg/mL (≈ 1.05 µM)
MIC (M. suipneumoniae TAM 6N): 0.5 µg/mL (≈ 1.05 µM)
MIC [3]: 0.25 µg/mL (≈ 0.524 µM)
MIC [4]: 0.5 µg/mL (≈ 1.05 µM)
MIC (M. hyorhinis ATCC 23234): 0.25 µg/mL (≈ 0.524 µM)
MIC (M. hyorhinis ATCC 25021): 0.25 µg/mL (≈ 0.524 µM)
MIC [5]: 0.25 µg/mL (≈ 0.524 µM)
MIC (M. bovis NCTC 10131): ≤ 0.01 µg/mL
MIC [6]: 0.025 µg/mL (≈ 0.0524 µM)
MIC (M. dispar NCTC 10125): 0.1 µg/mL (≈ 0.209 µM)
MIC (M. gallisepticum S6): 5 µg/mL (≈ 10.5 µM)
MIC (M. pneumoniae ATCC 15492): 2.5 µg/mL (≈ 5.24 µM)
